Measured values taken from article PMC3400123 (Bioorganic & medicinal chemistry, 2012).

What was measured:
MDCKII-MDR1 cells = test: Transport and cell association across MDCKII-MDR1 monolayers; assay type: in vitro ADME; settings: for PAB (+ inh): absorptive direction; for PAB (+ inh) / PBA (+ inh): with 5 × 10^−6 M LSN 335984, 5 × 10^−6 M dye, BSA; for PBA / PBA (+ inh): secretory direction; for PBA: no inhibitor, 5 × 10^−6 M dye, 4.3 mg mL^−1 BSA; for Ratio (+/− inh) for % cell associated dye: inhibited / uninhibited pump
human P-gp-His10 = human P-gp-His10 (Homo sapiens, UniProt P08183); test: Stimulation of ATPase activity of isolated human P-gp-His10; settings: read-out: KM (concentration of compound required to achieve 50% maximal stimulation); isolated human P-gp-His10 in sheep brain phosphatidylethanolamine
Chain of human P-gp-His10 (P08183 whole entry): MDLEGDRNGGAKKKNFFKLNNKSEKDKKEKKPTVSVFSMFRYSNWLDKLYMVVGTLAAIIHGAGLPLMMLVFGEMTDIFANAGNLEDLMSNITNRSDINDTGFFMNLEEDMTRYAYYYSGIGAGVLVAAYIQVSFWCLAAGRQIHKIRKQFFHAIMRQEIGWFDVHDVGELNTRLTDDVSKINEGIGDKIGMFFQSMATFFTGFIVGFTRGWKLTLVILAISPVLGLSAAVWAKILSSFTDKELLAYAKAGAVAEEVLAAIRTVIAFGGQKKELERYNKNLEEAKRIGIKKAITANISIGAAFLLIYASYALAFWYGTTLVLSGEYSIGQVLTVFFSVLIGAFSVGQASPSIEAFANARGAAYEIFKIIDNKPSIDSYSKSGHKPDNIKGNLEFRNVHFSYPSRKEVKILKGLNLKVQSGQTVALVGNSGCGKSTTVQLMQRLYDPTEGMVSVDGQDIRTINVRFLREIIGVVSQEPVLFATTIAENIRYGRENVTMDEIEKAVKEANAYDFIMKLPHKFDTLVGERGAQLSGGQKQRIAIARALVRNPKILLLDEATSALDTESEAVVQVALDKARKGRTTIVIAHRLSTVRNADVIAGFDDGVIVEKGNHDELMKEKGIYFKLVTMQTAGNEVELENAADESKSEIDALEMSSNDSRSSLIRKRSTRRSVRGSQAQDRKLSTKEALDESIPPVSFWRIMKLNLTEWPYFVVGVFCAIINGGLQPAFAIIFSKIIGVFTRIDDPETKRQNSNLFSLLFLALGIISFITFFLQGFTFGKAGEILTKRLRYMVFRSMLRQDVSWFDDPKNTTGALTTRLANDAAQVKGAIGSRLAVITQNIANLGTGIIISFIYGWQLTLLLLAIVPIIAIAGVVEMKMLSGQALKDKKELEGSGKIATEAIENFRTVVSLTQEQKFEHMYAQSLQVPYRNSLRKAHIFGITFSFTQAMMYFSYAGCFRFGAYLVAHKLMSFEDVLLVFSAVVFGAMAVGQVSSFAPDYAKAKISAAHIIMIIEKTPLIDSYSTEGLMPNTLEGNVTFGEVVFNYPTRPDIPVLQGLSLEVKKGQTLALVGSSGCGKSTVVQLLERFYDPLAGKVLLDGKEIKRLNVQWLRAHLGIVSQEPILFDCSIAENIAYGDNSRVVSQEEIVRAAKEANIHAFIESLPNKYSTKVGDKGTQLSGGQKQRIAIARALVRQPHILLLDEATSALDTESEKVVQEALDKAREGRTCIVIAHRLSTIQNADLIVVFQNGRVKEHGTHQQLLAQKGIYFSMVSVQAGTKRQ

SMILES | PAB (+ inh) (MDCKII-MDR1 cells) | PBA (MDCKII-MDR1 cells) | Km (human P-gp-His10) | Ratio (+/− inh) for % cell associated dye (MDCKII-MDR1 cells) | PBA (+ inh) (MDCKII-MDR1 cells)
CCN(CC)C(=S)c1ccc(-c2c3ccc(N(C)C)cc3[s+]c3cc(N(C)C)ccc23)s1.F[P-](F)(F)(F)(F)F [Compound 2, 3,6-bis(dimethylamino)-9-(5-(diethylcarbamothioyl)thiophen-2-yl)thioxanthylium hexafluorophosphate] | ≤ 1 ≤ 1 10^−9 m s^−1 | 210 ± 17 10^−9 m s^−1 | 5.8 ± 0.6 µM | – | –
CCN(CC)C(=S)c1ccc(-c2c3ccc(N(C)C)cc3[s+]c3c4c5c(cc23)CCCN5CCC4)s1.F[P-](F)(F)(F)(F)F [Compound 6, 12-(Dimethylamino)-2,3,6,7-tetrahydro-9-(5-(diethylcarbamothioyl)-thiophen-2-yl)-1H,5H-thioxantheno[2,3,4-ij]quinolizin-14-ium hexafluorophosphate] | ≤ 1 ≤ 1 10^−9 m s^−1 | 65.0 ± 1.5 10^−9 m s^−1 | 2.3 ± 0.4 µM | 1.2-2.1 | 2.7 ± 0.1 10^−9 m s^−1
CN(C)c1ccc2c(-c3ccc(C(=O)N4CCCCC4)s3)c3cc4c5c(c3[s+]c2c1)CCCN5CCC4.F[P-](F)(F)(F)(F)F [Compound 7, 12-(dimethylamino)-2,3,6,7-tetrahydro-9-(N-piperidyl-2-thienyl-5-carboxamido)-1H,5H-thioxantheno[2,3,4-ij]quinolizin-14-ium hexafluorophosphate] | ≤ 1 ≤ 1 10^−9 m s^−1 | 220 ± 29 10^−9 m s^−1 | 1.9 ± 0.4 µM | 3.3-6.1 | 8.1 ± 0.1 10^−9 m s^−1
CCN(CC)C(=S)c1ccc(-[c+]2c3ccc(N(C)C)cc3sc3cc4c(cc32)C(C)(C)CCN4C)s1.F[P-](F)(F)(F)(F)F [Compound 10, 6-(5-(diethylcarbamothioyl)thiophen-2-yl)-9-(dimethylamino)-1,4,4-trimethyl-2,3,4,6-tetrahydro-1H-thiochromeno[3,2-g]quinolin-6-ylium hexafluorophosphate] | ≤ 1 ≤ 1 10^−9 m s^−1 | – | 3.1 ± 0.7 µM | 1.2-2.1 | 1.0 ± 0.1 10^−9 m s^−1
CCN(CC)C(=O)c1ccc(-c2c3ccc(N(C)C)cc3[s+]c3cc(N(C)C)ccc23)s1 [Compound 1, 3,6-bis(dimethylamino)-9-(5-(diethylcarbamoyl)thiophen-2-yl)thioxan-thylium hexafluorophosphate] | – | – | 5.7 ± 1 µM | – | –
CCN(CC)C(=O)c1ccc(-[c+]2c3ccc(N(C)C)cc3sc3cc4c(cc32)C(C)(C)CCN4C)s1.F[P-](F)(F)(F)(F)F [Compound 9, 6-(5-(diethylcarbamoyl)thiophen-2-yl)-9-(dimethylamino)-1,4,4-trimethyl-2,3,4,6-tetrahydro-1H-thiochromeno[3,2-g]quinolin-6-ylium hexafluorophosphate] | ≤ 1 ≤ 1 10^−9 m s^−1 | 370 ± 17 10^−9 m s^−1 | 2.2 ± 1 µM | 3.3-6.1 | 27.0 ± 0.3 10^−9 m s^−1
CCN(CC)C(=O)c1ccc(-c2c3ccc(N(C)C)cc3[s+]c3c4c5c(cc23)CCCN5CCC4)s1.F[P-](F)(F)(F)(F)F [Compound 5, 12-(dimethylamino)-2,3,6,7-tetrahydro-9-(5-(diethylcarbamoyl)thiophen-2-yl)-1H,5H-thioxantheno[2,3,4-ij]quinolizin-14-ium hexafluorophosphate] | ≤ 1 ≤ 1 10^−9 m s^−1 | 210 ± 22 10^−9 m s^−1 | 3.6 ± 0.4 µM | 3.3-6.1 | 17.0 ± 0.4 10^−9 m s^−1
